According to patent publication US20190298664A1, “METHOD AND KIT FOR MYOCARDIAL REPERFUSION, AND METHOD FOR ATTENUATING OR REDUCING MYOCARDIAL REPERFUSION INJURY” (Academia Sinica, priority 2018, published 2019):

Experiments:
myocardial PTP activity = assay: Overall myocardial PTP activity by pNPP assay in heart extracts of I/R mice; assay type: in vivo, mouse; settings: 2 mg/kg IP ten min before reperfusion; four hours post-I/R
Procedure: We anesthetized the mouse with 5% isoflurane mixed with room air until loss of sensation of pain and then maintained the mouse in anesthesia status with 2% isoflurane mixed with room air through the whole procedure. The mouse's body temperature was maintained at 37° C. by a heating pad. After the mouse was intubated, we provided artificial ventilation to the mouse with a small animal ventilator. Then the chest cavity was opened at the second intercostal space and homemade chest retractors were utilized to widen the incision. We pulled the pericardium apart carefully and exposed the left anterior descending artery (LAD). A 7-0 silk was put underneath the LAD at the position of the tip of the left auricle, a 6 mm length of PE-10 tube was put on the surface of the LAD, and then a double knot was made to occlude the blood flow of LAD. The success of ligation was confirmed by […] anterior wall of the LV. For the reperfusion group, the LAD knot would be untied for the purpose of reperfusion after 1 hour of ischemia. For the sham operation group, all procedures were the same except for the knot that occluded the LAD flow. […] The released p-nitrophenolate ion is measured by spectrophotometry reading the absorbance at 405 nm. […]

I/R mice = assay: Echocardiography (ejection fraction) in I/R mice; assay type: in vivo, mouse; settings: 2 mg/kg IP
Procedure: We anesthetized the mouse with 5% isoflurane mixed with room air until loss of sensation of pain and then maintained the mouse in anesthesia status with 2% isoflurane mixed with room air through the whole procedure. The mouse's body temperature was maintained at 37° C. by a heating pad. After the mouse was intubated, we provided artificial ventilation to the mouse with a small animal ventilator. Then the chest cavity was opened at the second intercostal space and homemade chest retractors were utilized to widen the incision. We pulled the pericardium apart carefully and exposed the left anterior descending artery (LAD). A 7-0 silk was put underneath the LAD at the position of the tip of the left auricle, a 6 mm length of PE-10 tube was put on the surface of the LAD, and then a double knot was made to occlude the blood flow of LAD. The success of ligation was confirmed by […] anterior wall of the LV. For the reperfusion group, the LAD knot would be untied for the purpose of reperfusion after 1 hour of ischemia. For the sham operation group, all procedures were the same except for the knot that occluded the LAD flow. After the successful procedure, we left the silk in situ, closed the chest cavity and weaned the animal from the ventilator. At 1 day and 1 week post the indicated I/R episode, the mice were received echocardiography for evaluating the cardiac function. […]

## CC(=O)OC[C@H]1O[C@@H]([S-])[C@H](OC(C)=O)[C@@H](OC(C)=O)[C@@H]1OC(C)=O.CCP(CC)CC.[Au+] [Auranofin, auranofin]
Myocardial PTP activity
  Overall myocardial PTP activity: significantly suppressed
I/R mice; one day post-MI
  Cardiac ejection fraction: significant improvement
I/R mice; one week post-MI
  Restoration of cardiac performance judged by echocardiography: sustained up to one week
